# Source: publication PMC10531095, “Photonics of Some Monomethine Cyanine Dyes in Solutions and in Complexes with Biomolecules” (International Journal of Molecular Sciences, 2023)
# Legend:
# dsDNA = test: Thermal dissociation (melting) of dsDNA in the presence of MCD; format: binding, chick; conditions: cdsDNA~6 × 10^−5 mol L^−1, cMCD~6 × 10^−6 mol L^−1; for Tm(dsDNA), melting point of dsDNA in the presence of MCD: without cyanines 80 °C
# Source text: It is known that noncovalent ligand–dsDNA interactions upon the intercalative type of binding lead to additional stabilization of the biopolymer, which is reflected in an increase in the temperature range of thermal dissociation of the DNA double helix. From the data on the thermal dissociation of dsDNA, it is easy to obtain the melting point Tm(dsDNA) (at which 50% dsDNA is denatured). Note that Tm(dsDNA) depends on its GC composition, molecular length, and degree of strand complementarity; long duplexes with fewer base mismatches will have higher Tm(dsDNA) than short duplexes with more mismatches.
# Melting of the DNA double helix was measured spectrophotometrically at t = […], the normalized temperature dependences of the absorbances of the samples at λabs = 260 nm are shown in Figure 8.
# Single-stranded form of DNA (single-stranded DNA; ssDNA) was obtained according to the method described in [74]. The concentrations of DNA and the dyes were controlled spectrophotometrically. Molar extinction coefficient of dsDNA (ε, L⋅mol^−1⋅cm^−1) was taken to be 13,200 L mol^−1 cm^−1 (per base pair); for ssDNA, ε = 9045 L mol^−1 cm^−1 (per one base) was used. For MCD 1 and 2 in an aqueous buffer solution, we used extinction coefficients ε = 40,000 and 68,000 L mol^−1 cm^−1, respectively, which were taken from. For MCD 3 and 4, the molar extinction coefficients in ethanol solution were 69,200 and 49,000 L mol^−1 cm^−1 (taken from). […] Spectral fluorescent characteristics of MCD in complexes with biomacromolecules were studied by titration of dye solutions (see Supplementary Materials). The thermal dissociation (“melting”) of dsDNA in the presence of MCD was studied spectrophotometrically (λabs = 260 nm), the sample was heated (t° = 30–95 °C) using Peltier cells, and the temperature was controlled using a thermocouple. Melting points tm, corresponding to 50% hyperchromia of DNA samples were obtained.
# [1] = biological target: T1, human serum albumin (HSA) (Homo sapiens, UniProt P02768); test: Spectral fluorescent titration of the dyes with HSA in PBS; format: binding; conditions: for nSc, stoichiometric coefficient (Scatchard): HSA (nSc = 1 taken for HSA); for KeffBH, effective complexation constant (Benesi–Hildebrand): fluorescent titration; for αb, proportion of bound dye: cbiomol = 5 × 10^−5 mol L^−1; for Fmax/F0, fluorescence growth at 100% binding: from the Benesi–Hildebrand dependence; for K2Sc, complexation constant (Scatchard): nSc = 1; for φfl^b, fluorescence quantum yield of the dye in the presence of biopolymer: cHSA~5 × 10^−5 mol L^−1; for LOD: detection of HSA; for LOQ: quantification of HSA
# T1 construct: purchased Sigma-Aldrich
# Source text: Complexation of MCD 1–4 with DNA (double-stranded and single-stranded) and with human serum albumin (HSA) was studied by spectral fluorescent methods in a wide range of biopolymer concentrations (cdsDNA = 0–1.5 × 10^−4 mol L^−1; cssDNA = 0–1.4 × 10^−4 mol L^−1; cHSA = 0–1.4 × 10^−4 mol L^−1 in PBS buffer). The absorption, fluorescence, and fluorescence excitation spectra of MCD 1 and 3 in the presence of dsDNA are shown in Figure 3 and Figure 4, respectively.
# The complication of chemical equilibrium, and the variety of interactions between MCD and biopolymer (dye aggregation/deaggregation, the possibility of forming complexes of several types with DNA/HSA) makes it problematic to determine the exact values of the complexation constants of the dyes with DNA. The values of the effective equilibrium constants of the complexation reaction of MCD with biopolymers (Keff, L mol^−1, see Table 7) were estimated from spectral fluorescent data. In this case, we had to assume a simple equilibrium MCD (monomer, free) ⇄ MCD (monomer, bound). For these purposes, we used the Benesi–Hildebrand [59], Hill, and Scatchard formalisms (See Supplementary Materials, Equations (S9)–(S13)). For dsDNA, fitting according to the modified Scatchard equation was carried out assuming one dye molecule per one DNA turn (K1Sc at nSc = const = 10 b.p.), as well as varying both the constant (K2Sc) and the stoichiometric coefficient (nSc). In the case of ssDNA, nSc is given per one base; for HSA, nSc = 1.
# Distilled water, 0.01 M aqueous phosphate buffer saline solution (PBS; pH 7.4, containing 0.137 M NaCl and 0.0027 M KCl), ethanol, benzyl alcohol, isopentyl alcohol, acetonitrile, DMSO, 1,4-dioxane, chloroform, DMSO, acetone, methyl ethyl ketone, ethyl acetate (all analytical grade). Commercial chick erythrocyte DNA (Reanal, Budapest, Hungary) and human serum albumin (HSA, Sigma-Aldrich, St. Louis, MO, USA) were used.
# Absorption spectra were recorded on an SF-2000 spectrophotometer (Experimental-Construction Company “Spectrum”, St. Petersburg, Russia); fluorescence and fluorescence excitation spectra were recorded on a Fluorat-02-Panorama spectrofluorimeter (Group of Companies “Lumex”, St. Petersburg, Russia). The fluorescence and fluorescence excitation spectra were corrected for the spectral characteristics of the instrument (excitation channel signal) and sample transmission. Changes in the intrinsic fluorescence of HSA upon binding of MCD (in the presence of the dyes) were recorded in the synchronous fluorescence scanning (SFS) mode. In SFS mode, when registering spectra, a fixed difference Δλ= λfl − λex is maintained for the channels of excitation and registration. Synchronous scanning spectra were obtained at Δλ = 15 nm (fluorescence of tyrosine residues in the HSA molecule) and Δλ = 60 nm (fluorescence of tryptophan). The spectra were measured in 1 cm quartz semi-micro cells (Bio-Rad, Hercules, CA, USA).
# The equilibrium constants of MCD complexation with biomolecules (Ka, L mol^−1) were obtained from fluorescence spectra using the Benesi–Hildebrand [59], Hill, and Scatchard equations [61] (see Supplementary Materials, Equations (S9)–(S13)). Limits of detection (LOD) and quantification (LOQ) of biomolecules were determined from concentration plots of MCD fluorescence intensities (see Supplementary Materials, Equations (S14) and (S15)). […]
# 1. Spectral‐Fluorescent Titration
# In experiments on spectral‐fluorescence titration, MCD 1–4 were dosed from their concentrated st ock solutions in EtOH. Microvolumes (~0.5–5 μL) were dosed into the measuring cell (dilution 1:500 – 1:1000). […]
# Measurements of the intrinsic fluorescence of HSA in the presence of MCD were carried out at a constant concentration of HSA (cHSA ~ 2.0 × 10–5 mol L–1) by titration with increasing concentrations of dyes. After stirring, the absorption and fluorescence spectra of the dyes were recorded several times. […]
# T1 sequence (P02768 25-609): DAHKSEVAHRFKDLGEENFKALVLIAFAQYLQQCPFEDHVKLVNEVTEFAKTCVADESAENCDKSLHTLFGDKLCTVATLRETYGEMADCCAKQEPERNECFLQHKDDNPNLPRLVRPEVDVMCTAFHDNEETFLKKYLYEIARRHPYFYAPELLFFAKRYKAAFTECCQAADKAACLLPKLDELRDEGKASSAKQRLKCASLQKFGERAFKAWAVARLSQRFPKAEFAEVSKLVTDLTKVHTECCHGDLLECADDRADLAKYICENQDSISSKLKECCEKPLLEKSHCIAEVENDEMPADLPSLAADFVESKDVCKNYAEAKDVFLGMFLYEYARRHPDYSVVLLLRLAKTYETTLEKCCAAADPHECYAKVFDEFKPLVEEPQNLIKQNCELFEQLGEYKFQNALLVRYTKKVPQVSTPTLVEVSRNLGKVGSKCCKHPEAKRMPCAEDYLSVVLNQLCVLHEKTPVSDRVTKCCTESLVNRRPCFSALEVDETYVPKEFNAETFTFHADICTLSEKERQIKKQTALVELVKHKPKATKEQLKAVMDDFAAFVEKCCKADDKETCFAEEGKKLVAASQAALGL
Structure (SMILES),"Tm(dsDNA), melting point of dsDNA in the presence of MCD (dsDNA)","LR, linear portion of fluorescence intensity vs. concentration plot ([1]; HSA)","nHill, Hill coefficient ([1]; HSA)","nSc, stoichiometric coefficient (Scatchard) [1]",lower sensitivity to HSA than to dsDNA ([1]; HSA versus dsDNA),"KeffHill, effective complexation constant (Hill) ([1]; HSA, PBS buffer)","εf/εb, relative change in molar extinction coefficient on complexation ([1]; HSA, PBS buffer)","KeffBH, effective complexation constant (Benesi–Hildebrand) ([1]; HSA, PBS buffer)","αb, proportion of bound dye ([1]; HSA)","Fmax/F0, fluorescence growth at 100% binding ([1]; HSA)","K2Sc, complexation constant (Scatchard) ([1]; HSA)",hypochromia of the absorption band ([1]; cHSA = 2.5 × 10^−7 mol L^−1),"φfl^b, fluorescence quantum yield of the dye in the presence of biopolymer [1]","hypochromia of the absorption band ([1]; cHSA~9 × 10^−6 mol L^−1, crel(HSA) = 3)",LOD [1],LOQ [1],growth of Tm(dsDNA) (dsDNA),"φfl^b, fluorescence quantum yield of the dye in the presence of biopolymer ([1]; listed as 3)",drop in the apparent extinction coefficients ([1]; interaction with HSA)
CC[N+](CC)(CC)CCC[n+]1ccc(/C=C2\Sc3ccccc3N2C)c2ccc(O)cc21 [MCD 1],85–86 °C,0–0.6 ^3 µmol L^−1,0.89,1,about 37 times,3350 L/mol,1.59,8000 L/mol,27%,65,7300 L/mol,~ 25%,~1 ± 0.1%,~ 36%,270 nM,890 nM,,,
CCN1/C(=C/c2sc3ccccc3[n+]2CC)Sc2ccccc21 [MCD 3],82 °C,0 to 1 µmol/L,0.59,1,,27800 L/mol,,17600 L/mol,50%,26,34000 L/mol,,50%,,77 nM,230 nM,2–3 °C,~50 ± 6%,
CCN1/C(=C/c2ccc3ccccc3[n+]2CC)C=Cc2ccccc21 [MCD 4],83 °C,0.7–7.5 ^2 µmol L^−1,0.61,1,,1830 L/mol,,4820 L/mol,20%,109,17000 L/mol,,~0.5 ± 0.1%,,730 nM,2200 nM,2–3 °C,,1.5–2 fold
